In US20220396565A1 (Hoffmann-La Roche Inc., priority 2020, published 2022):
Structures can show the parent of a compound that is named as a salt.

System: Acinetobacter baumannii ATCC17978
Experiment: Antimicrobial susceptibility testing: 90% growth inhibitory concentration (IC90) determination, Iso-Sensitest broth
Type: cell-based
Conditions: 90% growth inhibitory concentration, Acinetobacter baumannii ATCC17978, Iso-Sensitest broth; read-out: ATCC 17978 IC90
Outline: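 Growth at OD600 was monitored every 20 min for 16 h at 35±2 °C, with bacteria inoculated at ~5×10^(5) CFU/ml into Iso-Sensitest medium. Compounds were tested as 10-point twofold dilutions (e.g. 10–0.02 μM final). The 90% inhibitory concentration comes from the log-phase growth.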

| IC90 [nM] | Compound |
| --- | --- |
| 70 | COc1ccc(-c2cnc(C(=O)Nc3ccc(C(=O)N4CCN(C(=O)CN(C)C)CC4)c(Cl)c3)n2C)c(F)c1F [Example 104, N-[3-chloro-4-[4-[2-(dimethylamino)acetyl]piperazine-1-carbonyl]phenyl]-5-(2,3-difluoro-4-methoxy-phenyl)-1-methyl-imidazole-2-carboxamide trifluoroacetate] |
| 40 | CN(C)CC(=O)N1CCN(C(=O)c2ccc(NC(=O)c3ncc(-c4ccc(OCC#N)c(F)c4F)n3C)cc2Cl)CC1 [Example 204, N-(3-chloro-4-(4-(dimethylglycyl)piperazine-1-carbonyl)phenyl)-5-(4-(cyanomethoxy)-2,3-difluorophenyl)-1-methyl-1H-imidazole-2-carboxamide formate] |
| 70 | Cn1c(-c2ccc(OCC#N)c(F)c2F)cnc1C(=O)Nc1ccc(C(=O)N2CCC(C(=O)N3CCN[C@@H](CO)C3)CC2)c(Cl)c1 [Example 81, (R)-N-(3-chloro-4-(4-(3-(hydroxymethyl)piperazine-1-carbonyl)piperidine-1-carbonyl)phenyl)-5-(4-(cyanomethoxy)-2,3-difluorophenyl)-1-methyl-1H-imidazole-2-carboxamide 2,2,2-trifluoroacetate] |
| 300 | COc1ccc(-c2cnc(C(=O)Nc3ccc(C(=O)N4CCC(CN)CC4)c(Cl)c3)n2C)c(F)c1F [Example 16, N-[4-[4-(aminomethyl)piperidine-1-carbonyl]-3-chloro-phenyl]-5-(2,3-difluoro-4-methoxy-phenyl)-1-methyl-imidazole-2-carboxamide trifluoroacetate] |
| 70 | Cn1c(-c2ccc(OCC#N)c(F)c2F)cnc1C(=O)Nc1ccc(C(=O)N2CCC(C(=O)N3CC[C@@H](N)C3)CC2)c(Cl)c1 [Example 80, (R)-N-(4-(4-(3-aminopyrrolidine-1-carbonyl)piperidine-1-carbonyl)-3-chlorophenyl)-5-(4-(cyanomethoxy)-2,3-difluorophenyl)-1-methyl-1H-imidazole-2-carboxamide formate] |
| 30 | Cn1c(-c2ccc(OCC#N)c(F)c2F)cnc1C(=O)Nc1ccc(C(=O)N2CCN(C(=O)[C@@H]3CCCN3)CC2)c(Cl)c1 [Example 198, (S)-N-(3-chloro-4-(4-prolylpiperazine-1-carbonyl)phenyl)-5-(4-(cyanomethoxy)-2,3-difluorophenyl)-1-methyl-1H-imidazole-2-carboxamide 2,2,2-trifluoroacetate] |
| 110 | COc1ccc(-c2cnc(C(=O)Nc3ccc(C(=O)N4CCN(C(=O)[C@@H]5C[C@H](O)CN5)CC4)c(Cl)c3)n2C)c(Cl)c1F [Example 114, 5-(2-chloro-3-fluoro-4-methoxy-phenyl)-N-[3-chloro-4-[4-[(2S,4S)-4-hydroxypyrrolidine-2-carbonyl]piperazine-1-carbonyl]phenyl]-1-methyl-imidazole-2-carboxamide formate] |
| 80 | COc1ccc(-c2cnc(C(=O)Nc3ccc(C(=O)N4CCN(CCN(C)C)CC4)c(Cl)c3)n2C)c(F)c1F [Example 278, N-[3-chloro-4-[4-[2-(dimethylamino)ethyl]piperazine-1-carbonyl]phenyl]-5-(2,3-difluoro-4-methoxy-phenyl)-1-methyl-imidazole-2-carboxamide formate] |
